Results as given in US20160263140A1, “USE OF COMPOUNDS ACTIVATING SIRT-3 FOR MIMICKING EXERCISE” (President and Fellows of Harvard College, priority 2007, published 2016).
Entries after “also recorded” stand apart in the source; their conditions may differ.

Tests used:
[1] = system: HEK293 cells; test: Cell death assay after MMS treatment (FACS, propidium iodide); format: cell-based; settings: for effect on Nampt-mediated cell protection/survival against MMS: HEK293 cells stably overexpressing Nampt, MMS treatment, sirtinol 100 μM
Description: Human embryonic kidney (HEK293) and human fibrosarcoma HT1080 cell lines were obtained from ATCC and grown in complete DMEM medium with 10% FBS and 100 μg/ml penicillin/streptomycin. To generate Nampt overexpression or empty vector stable clones, hNAMPT/pcDNA or pcDNA empty vector were transfected into HEK293 or HT1080 cells and selected with 0.5-1.0 mg/ml geneticin. To generate Nampt knockdown cells, siRNA/NAMPT/pMSCV or pMSCV empty vector were transfected into HT1080 cells, and stable clones were selected with 500 ng/ml puromycin. Primary neonatal rat cardiomyocytes were prepared as described previously (Matsui et al., 1999). Isolated cardiomyocytes were grown in complete medium (RPMI 1640, 5% fetal calf serum, 10% horse serum) to 80% confluence before cells were subjected to hypoxia and/or serum starvation. For hypoxia, medium was changed to RPMI 1640 with or without serum saturated with 95% N2/5% CO2 and then cells were placed in a 37° C. airtight box saturated with 95% N2/5% CO2 for 18 hours. O2 concentrations were <0.1% (Ohmeda oxygen monitor, type 5120). To serum starve HT1080, cells were grown in DMEM medium containing no serum. Cells were harvested after 26 h of serum starvation and Nampt expression was analyzed by Western blotting.
(§1) HEK293 and HT1080 cells at less than 85% confluency were treated with MMS (1.2 mM) for 6-8.5 h and 8-17 h, respectively. Transiently transfected cells were washed 3 times with PBS to remove residual transfection reagents before treating with MMS. HEK293 cells and HT1080 cells were exposed to etoposide for 72 h or 46 h, at 120 or 40 μM, respectively. HT1080 cells were exposed to camptothecin at 14 μM for 23 h. After drug treatments, cells were harvested by trypsinization, pelleted by centrifugation and resuspended in PBS containing 3% FBS. Cell death was analyzed by FACS using propidium iodide (PI) staining. Cells transiently-transfected with mNAMPT/MSCV, SIRT1-7 siRNA, Nmnat-3, or hMFT siRNA oligos and co-transfected with FAM-labeled scrambled siRNA oligos, percent cell death was determined by as the proportion of PUGFP or PIFAM positive cells versus the total number of cells with green fluorescence.

[2] = system: mitochondria from fresh rat livers; test: NAD+ levels in isolated liver mitochondria by HPLC-MALDI-MS; settings: for change of mitochondrial NAD+ levels (in words): FK866 10 nM and/or MMS 1:1000, 30 min at 37° C.
Description: Unless otherwise stated, fractionation of cultured cells was performed using a differential centrifugation and sucrose gradient procedure with slight modifications (Schwer et al., 2002). For drug treatment of mitochondria, fresh mitochondria were obtained from livers excised from fed young male rats. Half of the liver homogenate was used for mitochondrial isolation using a commercially available kit as described by manufacturer's instructions, designated Protocol 1 (Pierce Mitochondrial Isolation kit, Rockford, Ill.). The other half of the original homogenate was subjected to a differential centrifugation protocol to isolate mitochondria (Protocol 2). Mitochondria (500 μl) were added to a 48-well plate and treated with methylmethane sulfonate (MMS) at 1:1000 dilution and/or FK866 (10 nM) for 30 min at 37° C. Suspensions were spun down for 1 min at 14,000 rpm at 4° C. and pellets were stored at −80° C. prior to NAD^+ analysis by HPLC-MALDI-MS. Detailed protocols are described in Supplemental Information.
NAD^+ was determined by as described previously (Sauve and Schramm, 2003), with the following modifications. HEK293 or HT1080 cells were harvested by trypsinization and counted by haemocytometer. NAD^+ was extracted from whole cells or mitochondrial pellets by adding 10% perchloric acid and sonicating for 5 min on ice. The reference standard ^18O-NAD^+ (typically […]) was then added to the sample. After mixing well, samples were centrifuged for 3 min then neutralized with NaOH. NAD^+ in the supernatant (100 μL sample) was separated from other cellular components by HPLC. NAD^+ peaks were collected according to the standards' retention time and dried with a lyophilizor. […] The volume of mitochondrial pellets was calculated by considering the density of the mitochondria pellets to be 1.0 μL/mg. Total cellular NAD^+ concentrations were calculated by dividing the quantity of NAD^+ per cell by the mean cell volume (MCV) as measured by a Coulter counter, which for HT1080 was […] and for HEK293 was […]. […]

[3] = system: HEK293 cells; test: Total cellular NAD+ by HPLC-MALDI-MS after MMS; format: cell-based, human; settings: 1.2 mM MMS, 2 and 4 h, irrespective of Nampt levels
Description: as §1
NAD^+ was determined by as described previously (Sauve and Schramm, 2003), with the following modifications. HEK293 or HT1080 cells were harvested by trypsinization and counted by haemocytometer. NAD^+ was extracted from whole cells or mitochondrial pellets by adding 10% perchloric acid and sonicating for 5 min on ice. […] The volume of mitochondrial pellets was calculated by considering the density of the mitochondria pellets to be 1.0 μL/mg. […]

[4] = system: GLUT4; test: GLUT4 protein expression in SIRT3-expressing C2C12 myotubes (Western blot); format: cell-based, murine; settings: 40 μM, 3-hour treatment
Description: (§2) C2C12 myocytes and BOSC23 cells were cultured in Dulbecco's modified Eagle's medium containing 10% bovine calf serum. For C2C12 differentiation, at confluence, cells were incubated in Dulbecco's modified Eagle's medium with 2% horse serum (Hyclone, Logan, Utah) for three days. Inhibition of AMPK in selected studies was achieved by adding compound C (6-[4-(2-Piperidin-1-yl-ethoxy)-phenyl)]-3-pyridin-4-yl-pyrrazolo[1,5-a]-pyrimidine, Merck) (31) to the media for 3 hours at a final concentration of 40 μM. […]

[5] = system: AMPK; test: AMPK phosphorylation in C2C12 myotubes (Western blot); format: cell-based, murine; settings: 40 μM, 3-hour treatment; vector- and SIRT3-transfected C2C12 myotubes
Description: as §2

## O=C1NCCc2c(OCCCCN3CCCCC3)cccc21 [DPQ, 3,4-dihydro-5-[4-(1-piperidinyl)butoxy]-1(2H)-isoquinolinone]
[1]; HEK293 cells, MMS, 30 μM DPQ
  extent of MMS-induced cell death: greatly reduced; also recorded: Attenuated

## O=C(/C=C/c1cccnc1)NCCCCC1CCN(C(=O)c2ccccc2)CC1 [FK866]
[1]
  effect on Nampt-mediated cell protection/survival against MMS: prevented cell protection by Nampt overexpression; also recorded: the effect is blocked
[2]
  change of mitochondrial NAD+ levels (in words): even larger decreases in mitochondrial NAD+ levels; also recorded: reduced

## COS(C)(=O)=O [MMS, methylmethane sulfonate]
[3]
  total NAD+ concentration after MMS treatment: < 100 µM
[1]; 1.2 mM MMS, vector control cells
  cell death caused by MMS treatment: death of about half the vector control cells
[2]
  change of mitochondrial NAD+ levels (in words): reduced
[2]; MMS 1:1000 dilution, 30 min at 37° C.
  reduction of mitochondrial NAD+ levels: ~2 fold

## c1cc(-c2cnn3cc(-c4ccc(OCCN5CCCCC5)cc4)cnc23)ccn1 [compound C]
[4]
  ability of SIRT3 to increase GLUT4 protein expression: completely abolished
[5]
  AMPK phosphorylation: decreased AMPK phosphorylation

## CC(NC(=O)c1ccccc1/N=C/c1c(O)ccc2ccccc12)c1ccccc1 (stereo not shown) [sirtinol]
[1]
  effect on Nampt-mediated cell protection/survival against MMS: did block the ability of Nampt overexpression to protect cells
